Test results: PMC8294803, “A Roadmap to the Structure-Related Metabolism Pathways of Per- and Polyfluoroalkyl Substances in the Early Life Stages of Zebrafish (Danio rerio)” (Environmental Health Perspectives, 2021)
Several values for one entry are separate records, joined by “and”; a condition that tells them apart may be missing. Equal entries are not always repeated. Entries after “also recorded” stand apart in the source; their conditions may differ. Where two headings read alike, the source gives them in different places.

How the values were obtained:
[1] = tested on: zebrafish larvae; assay: Nontargeted analysis of PFAS metabolites in zebrafish larvae (high-resolution MS); settings: for Metabolites / hydrolysis products in zebrafish larvae: in vivo, nontargeted analysis; for Profile of metabolites (%): Alcohol / Peak intensity: Alcohol (parent FTOH): zebrafish larvae; for Profile of metabolites (%): Alcohol: Figure 5B; for Peak intensity: Alcohol (parent FTOH): single replicates, Figure 5A
Description: (§1) Zebrafish embryos were collected immediately after spawning, within 1 h, and subsequently transferred to 24-well plates with 1mL of facility water ( 0.036g sea salt, 0.15g sodium bicarbonate in 2L of reverse osmosis water). […] Three well replicates on the same plate were conducted for each concentration of individual chemical. […] Seven batches of experiments were performed to test all 74 PFAS. DMSO controls were incorporated in each batch of exposure experiments. Three replicates were performed for each treatment group, and 20 embryos were used for each replicate. […] For daily replenishment, 2.5mL of old exposure medium were replaced with freshly prepared medium every 24 h from 24 to 96 h post fertilization (hpf). Hatched or dead embryo numbers were recorded every 24 hpf, after which dead embryos were discarded from the growth media. Dead embryos or unhatched embryos were not used for PFAS measurement because the metabolism of PFAS might have been impacted. Zebrafish larvae collection occurred at 120 hpf. First, the larvae were anesthetized by cooling the plate in ice water (0–4°C) for ∼20 min . Then 8–15 larvae in each well were transferred into 1.5-mL tubes. Exposure media was carefully removed, and then the larvae were weighed (wet weight) after blotting excess water with a paper towel. […] Samples were stored at −80 °C until further chemical analysis was performed. Survival rate and hatching rate were calculated by summarizing all the documented data from the whole treatment duration. […] The exposure experiment of PFOSA was repeated using the same procedure as described above.
(§2) Each sample was spiked with 2μL of 0.2μg/mL mass-labeled PFAS mixture. Following this, 500μL of dichloromethane/methanol (2:1, vol/vol) was added to each sample for PFAS extraction. Larvae were then homogenized via ultrasonic probe, followed by 30 min of shaking and 30 min of sonication. Each sample was centrifuged at 14,000×g for 5 min, after which the supernatant was transferred to new tubes. Extraction was repeated once and the two supernatants were combined, evaporated under nitrogen flow, and reconstituted in 200μL of methanol for MS analysis.
(§3) Three microliters of each zebrafish extract was applied to a C18 column ( 1.5μm; 2.1mm×50mm; Thermo Scientific) and analyzed using a Vanquish ultra-HPLC system (Thermo Fisher Scientific) coupled to a Q Exactive high-resolution mass spectrometer (Thermo Fisher Scientific). The sampler and column compartments were maintained at 4°C and 40°C, respectively. The aqueous mobile phase solution (A) consisted of water, whereas the organic mobile phase solution (B) consisted of acetonitrile. […] MS data was acquired in full scan mode (100–1000 m/z, 70,000 mass resolution, 3×10^6 maximum ions collected per 100 ms), and tandem MS (MS/MS) data was recorded by all-ion fragmentation (AIF) mode. Negative and positive ion modes were carried out simultaneously at a 10-min method duration. […] An overview of the analyses conducted on the various PFAS is available in Table S2.
Nontargeted data analysis was accomplished with R scripts that are available on Github (https://github.com/huiUofT/PFASmetabolite). […] The peak features were matched across samples with a mass tolerance of 2.5 ppm and a RT window of 20 s, after RT adjustment. The ratio of abundances of each feature in treatment groups relative to the control group (DMSO) was calculated. The p -values of the difference between two groups were determined by student’s t -tests.

[2] = tested on: zebrafish embryos; settings: for pericardial oedemata, Mean / spinal curvature, Mean / tail dysplasia, Mean: 5μM through 120 hpf, malformation rate; for Mortality (%): 5 µM, exposure through 120 hpf; for Lethal effects on zebrafish larvae: 5μM, 5 d
[3] = molecular target: T1, recombinant human liver carboxylesterase 1 (hCES1) (Homo sapiens, UniProt P23141); assay: Hydrolysis of PFAS by recombinant hCES1; assay type: in vitro ADME; settings: for concentration of corresponding hydrolysis product detected from parent PFAS, hCES1 / concentration of corresponding hydrolysis product detected from parent PFAS, Control: 10 µM parent PFAS, three replicates; for concentration of corresponding hydrolysis product detected from parent PFAS, hCES1: incubated with hCES1; for concentration of corresponding hydrolysis product detected from parent PFAS, Control: vehicle control group without hCES1; for Concentration of hydrolysis product: from 10μM of parent, 100μg/L hCES1, 37°C; for Parent PFAS, hCES1 (%) / Parent PFAS, Control (%): 10 μM PFAS, single replicates; for Parent PFAS, hCES1 (%): 100 μg/L hCES1, phosphate buffer 37 °C 1 hour, axis %Control; for Parent PFAS, Control (%): without hCES1, phosphate buffer 37 °C 1 hour
T1 construct: purchased Sigma Aldrich
T1 sequence (P23141 18-567): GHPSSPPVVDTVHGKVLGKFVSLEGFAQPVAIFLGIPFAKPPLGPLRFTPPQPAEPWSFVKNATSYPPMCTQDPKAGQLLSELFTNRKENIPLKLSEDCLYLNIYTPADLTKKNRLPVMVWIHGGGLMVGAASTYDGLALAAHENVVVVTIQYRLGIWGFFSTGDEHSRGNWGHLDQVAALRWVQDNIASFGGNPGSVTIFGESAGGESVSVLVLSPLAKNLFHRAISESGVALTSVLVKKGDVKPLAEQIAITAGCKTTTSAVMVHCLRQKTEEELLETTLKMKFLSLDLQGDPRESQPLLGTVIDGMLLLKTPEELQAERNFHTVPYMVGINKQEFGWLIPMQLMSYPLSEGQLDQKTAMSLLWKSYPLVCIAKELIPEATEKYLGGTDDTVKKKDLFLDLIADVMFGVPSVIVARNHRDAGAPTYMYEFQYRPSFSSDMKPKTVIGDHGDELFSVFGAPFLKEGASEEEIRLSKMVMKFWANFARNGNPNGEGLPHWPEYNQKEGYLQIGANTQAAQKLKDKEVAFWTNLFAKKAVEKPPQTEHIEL
Description: Because recombinant zebrafish CES is not available, we decided to use hCES1 to evaluate the structure-related hydrolysis of PFAS. […] In vitro enzymatic activity experiments were carried out for 1 h in 1.5-mL tubes with 100μL phosphate buffer ( 137 mM sodium chloride, 10 mM phosphate buffer, 2.7 mM potassium chloride; pH 7.4) at 37°C with shaking. Reaction mixtures contained different concentrations of PFAS (1, 10, and 50μM ) and 100μg/L hCES1. […] To stop the hydrolysis reaction, four times the volume of ice-cold methanol was added. The hCES1 protein was precipitated out by centrifugation ( 14,000×g , 10 min). The supernatant was transferred to a new tube and analyzed via MS for the analysis of parent compounds and suspected metabolites (i.e., carboxylates).

[4] = tested on: liver fatty acid binding protein (L-FABP); set-up: method as in Yang et al. 2020; settings: ref Yang et al. 2020, cited from earlier work
[5] = tested on: zebrafish larvae; assay: Bioconcentration factors (BCF) of PFAS in zebrafish larvae; settings: zebrafish larvae; for BCF 0.5µM: 0.5 µM exposure; for BCF 0.5µM / BCF 5µM: 120 hpf, three replicates; for BCF 5µM: 5 µM exposure
Description: as §1, §2, §3
GraphPad Prism (version 7.0.4; GraphPad Software) and R studio (version 1.1.456; R Studio Inc.) software was used, and an ANOVA with Dunnett tests was employed to evaluate the statistical significance of the percentage hatched and mortality rate. Exponential regressions were used to determine the relationships between bioconcentration factor (BCF) and binding affinities ( Kd ) to L-FABP.

| Molecule | Metabolites / hydrolysis products in zebrafish larvae [1] | pericardial oedemata, Mean [2] | spinal curvature, Mean [2] | tail dysplasia, Mean [2] | Mortality (%) [2] | concentration of corresponding hydrolysis product detected from parent PFAS, hCES1 [3] | concentration of corresponding hydrolysis product detected from parent PFAS, Control [3] | Concentration of hydrolysis product [3] | Lethal effects on zebrafish larvae [2] | L-FABP ligand [4] | Parent PFAS, hCES1 (%) [3] | Parent PFAS, Control (%) [3] | BCF 0.5µM [5] | BCF 5µM [5] | Profile of metabolites (%): Alcohol [1] | Peak intensity: Alcohol (parent FTOH) [1] | BCF at 0.5μM compared with 5μM [5] | Lethal effects on zebrafish larvae ([2]; listed as PFOSA) | Kd ([4]; read-out: Kd (μM), L-FABP binding affinity) |
| --- | --- | --- | --- | --- | --- | --- | --- | --- | --- | --- | --- | --- | --- | --- | --- | --- | --- | --- | --- |
| 2,2-Difluoroethyl triflate [compound 13] | metabolites were not detected | 2.22% | 0.00% | 1.11% | 2.2% | 0 nM | 0 nM | not detected | – | – | – | – | – | – | – | – | – | – | – |
| 2-(Trifluoromethoxy)ethyl trifluoromethanesulfonate [compound 10] | metabolites were not detected | 2.22% | 1.11% | 0.00% | 0% | 0 nM | 0 nM | not detected | – | – | – | – | – | – | – | – | – | – | – |
| C=C(C)C(=O)OCCC(F)(F)C(F)(F)C(F)(F)C(F)(F)C(F)(F)C(F)(F)F [compound 2, 6:2 Fluorotelomer methacrylate] | hydrolysis products (i.e., sulfated 6:2 FTOH) were also detected | 3.33% | 1.11% | 4.44% | 0% | – | – | – | – | – | – | – | – | – | – | – | – | – | – |
| CNS(=O)(=O)C(F)(F)C(F)(F)C(F)(F)C(F)(F)C(F)(F)C(F)(F)C(F)(F)C(F)(F)F [compound 16, N-Methylperfluorooctanesulfonamide] | – | 0.00% | 0.00% | 0.00% | – | – | – | – | strongest lethal effects | not identified as L-FABP ligands | 89.36% and 92.00% and 92.59% | 93.34% and 78.46% and 128.20% | 292.232 L/kg | 89 ± 9.4 L/kg | – | – | – | – | – |
| OCC(F)(F)OC(F)(F)C(F)(F)OC(F)(F)CO [compound 32, 1H,1H,8H,8H-Perfluoro-3,6-dioxaoctane-1,8-diol] | – | 1.11% | 0.00% | 1.11% | 3.3% | – | – | – | – | – | – | – | 5.939 L/kg | 8.4 ± 1.1 L/kg | 48.26% | 13344387 and 7489514 and 11717785 | comparable or even higher BCFs at 5μM | – | – |
| COC(=O)C(F)(F)C(F)(F)C(F)(F)C(F)(F)C(F)(F)F [compound 36, Methyl perfluorohexanoate] | metabolites were not detected | 1.11% | 0.00% | 0.00% | 4.4% | – | – | not detected | – | – | – | – | – | – | – | – | – | – | – |
| COC(=O)C(F)(F)C(F)(F)C(F)(F)F [compound 47, Methyl heptafluorobutyrate] | metabolites were not detected | 2.22% | 1.11% | 0.00% | 0% | – | – | not detected | – | – | – | – | – | – | – | – | – | – | – |
| NS(=O)(=O)C(F)(F)C(F)(F)C(F)(F)C(F)(F)C(F)(F)C(F)(F)C(F)(F)C(F)(F)F [compound 60, Perfluorooctanesulfonamide] | – | 0.00% | 0.00% | 0.00% | 100% | – | – | – | strongest lethal effects | – | 83.48% and 89.94% and 97.43% | 81.21% and 101.71% and 117.08% | 501 ± 19 L/kg and 501.032 L/kg | – | – | – | – | no zebrafish larvae from the 5-μM group survived; also recorded: All zebrafish larvae were dead | 5.87 µM |
| OCC(F)(F)C(F)(F)C(F)(F)C(F)(F)C(F)(F)C(F)F [compound 67, Dodecafluoroheptanol] | – | 1.11% | 0.00% | 0.00% | 0% | – | – | – | – | – | – | – | – | – | 0.00% | 0 | – | – | – |
| OCCC(F)(F)C(F)(F)C(F)(F)C(F)(F)C(F)(F)C(F)(F)F [compound 70, 6:2 Fluorotelomer alcohol] | – | 0.00% | 0.00% | 0.00% | 0% | – | – | – | – | – | – | – | – | – | 0.00% | 0 | – | – | – |
